From patent publication US8614231B2, “Immunosuppressor based on the blockage of TCR-Nck interaction” (Consejo Superior de Investigaciones Cientificas, priority 2008, dated 2013) come the findings set out here.

As a reminder, the viability is the share of living cells, or the viability signal relative to a control.

Data set [1] concerns human IL2-dependent lymphoblasts. Briefly: Proliferation of human IL2-dependent lymphoblasts (IL2R-dependent proliferation). Particulars: at concentrations of 20 μM; 100 IU/ml IL2, 3 days. Type of data set: cell-based. The method, then:
(§1) PBMNCs purified from healthy donors were labelled with CFSE and incubated for 5 days on plates coated with anti-CD3 OKT3 antibody in the presence of various doses of the compounds indicated, among them CBM-1. The proliferation was evaluated by flow cytometry in accordance with the loss of green fluorescence (CFSE) within the CD4+ and CD8+ populations. A parallel experiment was performed on the proliferation of human IL2-dependent lymphoblasts. Purified PBMNC from healthy donors were stimulated with PHA for 48 hours and labelled with CFSE. The were subsequently cultured for 3 days in the presence of 100 IU/ml of human recombinant IL2 in the presence of concentrations of the compounds used, particularly CBM-1.

Data set [2] deals with human T lymphocytes. In words: Cytokine secretion by human T lymphocytes (PBMNC) stimulated with anti-CD3 antibodies. Type of data set: cell-based. Particulars: for IC50: Homo sapiens, T-lymphocyte, supernatant at 72 hours, anti-CD3. The method, then: Inhibition by CBM-1 of the secretion of cytokines by human T lymphocytes in response to stimulation with anti-CD3 antibodies. Peripheral blood mononuclear cells (PBMNC) purified from healthy donors were stimulated on plates coated with anti-CD3 OKT3 antibodies in the presence of various doses of CBM-1 for 72 hours. The concentration of the indicated cytokines in the supernatant (IL-10, IFN-γ, and TFN-β) was evaluated by multiparametric flow cytometry (BD cytometric bead array).
The effect of CBM-1 on the production of cytokines was measured in an assay in which human PBMNC were stimulated with anti-CD3 antibodies. The supernatant of these cells was collected at 72 hours and several cytokines were simultaneously measured by a flow cytometry assay.

Data set [3] has as its system human T lymphocytes. Briefly: Proliferation of human T lymphocytes stimulated with anti-CD3 antibodies (CFSE, flow cytometry). Type of data set: cell-based. The conditions noted are these: for IC50: Homo sapiens, T-lymphocyte, 120 h, PBMNC, 5 days. The method, then: For the next round of selection of the compounds resulting from virtual screening with potential for blocking Nck-CD3ε interaction, PBMNC purified from healthy donors were labelled with fluorescence and incubated for 5 days on plates covered with anti-CD3 OKT3 antibodies in the presence of different doses of these compounds. Proliferation of T lymphocytes was evaluated by flow cytometry in accordance with the loss of green fluorescence (CFSE) within the CD8+ population.
as §1

Data set [4] has as its system C57BL/6 mouse spleen cells. In words: Intracellular IFNγ expression by mouse CD4+ T cells stimulated with anti-CD3 + anti-CD28. Type of data set: cell-based. The conditions noted are these: Lymphocyte, anti-CD3 + anti-CD28 48 hours, then brefeldin A 6 hours, read-out: IC50 generation of IFNγ-secreting Th1 lymphocytes. From the text:
Intracellular expression of IFNγ in response to stimulation with a mixture of anti-CD3 and anti-CD28.
The cells were first stained with CD4-PE and after fixing and rinsing they were stained with anti-IFNγ antibody.

A further data set addresses T1, SH3.1 domain of Nckα (Homo sapiens, UniProt P16333).
T1 construct: The three-dimensional structure of the SH3.1 domain of Nckα
In words: NMR chemical displacements in the SH3.1 domain on compound binding. The conditions noted are these: residues Trp41 and Tyr50/Phe53 participate. The method, then: Displacements of the amino acid residues in the SH3.1 domain caused by the interaction with compound CBM-1. The lateral chains of the amino acids that changed their position after binding the compound are represented. The changes are consequent to the binding of compound CBM-1 to the pocket visualised in virtual screening.
The three-dimensional structure of the SH3.1 domain of Nckα, in the presence and in the absence of peptide 11R085, was determined in parallel (with the collaboration of the laboratory of Professors María Angeles Jiménez and Manuel Rico, of the Instituto de Química-Física Rocasolano, CSIC, Madrid) (FIG. 6). This enabled validation of the prediction of the structural computer model used for virtual screening. In addition, it allowed measurement of the chemical displacements caused to the structure by compound CBM-1 (FIG. 7).
The displacements of residues in the SH3.1 domain validate the prediction of the interaction of the SH3.1 domain with CBM-1 at a molecular level and are consistent with the model.

Data set [5] has as its system human Raji lymphoblastoid B cell line. Briefly: Toxicity by propidium iodide exclusion and flow cytometry, Raji. Type of data set: cell-based. Particulars: 48 hours, even at the highest dose. The method, then: (§2) Human Jurkat T lymphocyte cell line and human Raji lymphoblastoid B cell line were incubated with the indicated concentrations of CBM-1 for 48 hours. The toxicity of the compound was estimated by propidium iodide exclusion and flow cytometry. The two cell lines remained with 100% viability after 48 hours, even at the highest dose of the compound.

The test system of another data set is T lymphocytes. Briefly: Inhibitory action on the activation of T lymphocytes (summary statement). Particulars: both in mice and humans; concentrations as low as. Type of data set: cell-based. From the text: It inhibited the production of IFNγ, IL-10 and TNFβ, as well as the generation of human cells that produce IFNγ in response to anti-CD3 and anti-CD28 in human lymphocytes stimulated with anti-CD3 and anti-CD28 antibodies.

In data set [6] the test system is OT-I transgenic mouse primary lymphocytes. Briefly: IL2 production and antigen-induced proliferation of mouse T lymphocytes. Type of data set: cell-based. An excerpt: Thus, Nck-CD3ε interaction as a molecular target for immunosuppressor development has been validated.
The subject of data set [7] is Human Jurkat T lymphocyte cell line. Briefly: Toxicity by propidium iodide exclusion and flow cytometry, Jurkat. Type of data set: cell-based. Particulars: 48 hours, even at the highest dose. The method, then: as §2
Background: A flow cytometer gives signals particle by particle.

[8] abbreviates: 72 hours, up to concentrations of 30 μM.

“Also recorded” adds a separate entry of the source.

For the compound `c1ccc(C2=C(CN3CCCCC3)C(c3ccccc3)c3ccccc3O2)cc1` (centres unmarked) [CBM-1], in [1], the “inhibition of the proliferation of human IL2-dependent lymphoblasts” value is recorded as “did not significantly inhibit”. Moreover, in the data set with human T lymphocytes [2] (setting [8]), the “effect on the production of IL5” value is listed as “did not show any effect; also recorded: no effect”. Besides, the “effect on the production of IL6” value in the data set with human T lymphocytes [2] (setting [8]) is “did not show any effect; also recorded: no effect”. Also, the “effect on the release of IL1-β” value with human T lymphocytes [2] (72 hours, various doses) was “did not show any effect”. Moreover, the IC50 in the data set on human T lymphocytes [2] (read-out: IC50 IFNγ production) was 300 nM; in the data set on human T lymphocytes [2] (read-out: IC50 IL10 production), 200 nM; with human T lymphocytes [2] (read-out: IC50 TNFβ production), 200 nM; in the data set on human T lymphocytes [3] (anti-CD3 OKT3, CD4+ population, read-out: IC50 proliferation of CD4+ lymphocytes induced by anti-CD3), 2000 nM; in the data set on human T lymphocytes [3] (anti-CD3 OKT3, CD8+ population, read-out: IC50 proliferation of CD8+ lymphocytes induced by anti-CD3), 3000 nM; in data set [4], 800 nM. Moreover, in the data set with human T lymphocytes [3] (anti-CD3 OKT3, 5 days, compounds from virtual screening), the “blocking activity on the proliferation of the lymphocytes (in words)” value is “highest activity and least toxicity; also recorded: best and least toxic”. The “binding to the SH3.1 domain (NMR)” value on SH3.1 domain of Nckα is “binds to a hydrophobic pocket”. Also, the viability in data set [5] and in data set [7] was 100% in each case. Further, in the data set on T lymphocytes, the “concentration with inhibitory action on the activation of T lymphocytes” value is no less than 0.1 µM. In addition, the “proliferation of antigen-dependent mouse T lymphocytes (in words)” value in data set [6] is given as “inhibited”. The “release of IL2 (in words)” value in data set [6] (mouse T lymphocytes) is recorded as “inhibited”.
